Laboratory results: US20250064779A1, “COMPOSITIONS AND METHODS FOR THE TREATMENT OF DEPRESSION” (Janssen Pharmaceuticals, Inc., priority 2022, published 2025)
“And” between values parts separate entries of the source, which are not always exact repeats. Identical values can stand only once.

Legend:
Type in all cases: in vivo, human
Weight change, Example 1 = conditions: n = 85; for Mean weight, Withdrawal Baseline, mean (SE): after 6 weeks in the double-blind treatment phase
From the text: At the lead-in baseline timepoint, the mean weight for subjects in the placebo group was 76.17 kg compared to 78.66 in the aticaprant group. After 6 weeks in the double-blind treatment phase, the mean weight in the placebo group was 75.75 kg compared to 78.57 kg in the aticaprant group. […] This is unexpected because other adjunctive treatments for MDD result in a mean weight increase. See, Thase M, et al. J Clin Psych. 2015: 76(9), 1224-1231; Thase, J Clin Psych. 2015, 76(9):1232-1240; El Khalili, Int J Neuropsychopharmacol. 2010, 13, 917-932; Marcus, J. Clin. Psychopharmacol. […] Nashville, Tenn, ACNP, 2008; Earley, American College of Neuropsychopharmacology, 2007, Annual Meeting Abstracts (Boca Raton, Fla, Dec. 9-13, 2007). Nashville, TN, ACNP, 2007). See, Table 29.

[1] = system: adjunctive MDD, including treatment-resistant MDD (TRD) and MDD with suicidal ideation (SUI); experiment: Biomarker signature (3MM, 2MM, CRP) analysis of MADRS treatment effect across clinical trials (Example 6)
Method: Samples of venous blood were obtained from patients and healthy control subjects from subject described in Example 5 and from the other clinical trials referenced herein. Serum or plasma was prepared from the samples of venous blood. Measurements of human CRP and IL-6-R were performed in serum using an MSD Sector 6000 with the kits #K151STD and K151ALC (MesoScale Discovery, Rockville, MD). Human TNFα was quantified in serum using a Simoa HD-1 analyzer with kit #143 (Quanterix, Lexington, MA). All measures were performed according to kit manufacturer's recommendations.
As used in the following biomarker assay analysis, treatment (TRT) refers to treatment with intranasal esketamine plus optionally an oral antidepressant and placebo (PBO) refers to treatment with a placebo plus optionally an oral antidepressant.
The following biomarker signatures were employed: • 3MM: Inflammatory biomarker signature with positive status defined by CRP >3 mg/L and (TNFα>4 pg/mL or sIL6R>25 ng/mL). • 2MM: Inflammatory biomarker signature with positive status defined by CRP >3 mg/L and sIL6R>25 ng/mL. • CRP: Inflammatory biomarker signature with positive status defined by CRP >3 mg/L/
The 3MM signature was tested in clinical trials for adjunctive MDD, including treatment-resistant MDD (TRD) and MDD with suicidal ideation (SUI). […] Significant was driven by Esketamine (ESK) TRD trials.

subjects with TRD [2] = experiment: SDS remission (functional recovery), esketamine long-term study (Example 5); conditions: observed case
From the text: Functional recovery measured by SDS followed with some lag time after mood improvement. […] See, FIG. 32.

subjects with TRD [3] = experiment: PHQ-9 total score, esketamine long-term study (Example 5)
From the text: This is an open-label, multicenter, long-term study to evaluate the efficacy of intranasal esketamine plus a newly initiated oral antidepressant in subjects with TRD ([…] 3002/NCT02418585).
Each subject participated in up to 4 phases: up to 4-week screening phase (direct-entry subjects only), a 4-week open-label induction (IND) phase (direct-entry subjects and transferred-entry non responder subjects), a 48-week open-label optimization/maintenance (OP/MA) phase (all responder subjects from the open label IND phase of the current study, and transferred-entry responder subjects), and a 4-week follow-up phase. The maximum duration of the subject's participation in […] 3004 study was 60 weeks for direct-entry subjects; 56 weeks for transferred-entry non-responder subjects, and 52 weeks for transferred-entry responder subjects. The sample size of 750 was estimated to have at least 300 subjects received treatment with intranasal esketamine for 6 months and at least 100 subjects for 12 months. In addition, transfer-entry subjects were enrolled from 3005 study to get 100 elderly subjects dosed with esketamine. See, FIG. 30 for the trial design.
The efficacy analyses are based on the full (IND) analysis set and the full (OP/MA) analysis set. […] A total score (0 to 60) is calculated by summing the scores of all 10 items. […]

subjects with TRD [4] = experiment: MADRS, intranasal esketamine plus oral antidepressant, open-label long-term study (Example 5)
[5] = across the esketamine TRD trials, end of double blind treatment
[6] = endpoint of OP/MA phase, responders proceeding to OP/MA

Cc1cc(C)cc(C2CCCN2Cc2ccc(Oc3ccc(C(N)=O)cc3F)cc2)c1 (stereo not drawn) [aticaprant, 3-fluoro-4-4-2-(3,5-dimethylphenyl)pyrrolidin-1-yl-methylphenoxybenzamide]
Mean weight, Lead-in Baseline, mean (SE) (Weight change, Example 1): 78.66 kg
Mean weight, Screening, mean (SE) (Weight change, Example 1): 78.42 (1.65) kg
Weight: Absolute Change (Withdrawal − Lead-in) (Weight change, Example 1): -0.09 kg
Weight: Relative % Change (Weight change, Example 1; Withdrawal vs Lead-in): −0.11%
Mean weight, Withdrawal Baseline, mean (SE) (Weight change, Example 1): 78.57 kg
Mean weight, Withdrawal Baseline, mean (SE) (Weight change, Example 1; listed as Aticaprant): 78.57 (1.71) kg
Mean weight, Lead-in Baseline, mean (SE) (Weight change, Example 1; listed as Aticaprant): 78.66 (1.65) kg

CN[C@]1(c2ccccc2Cl)CCCCC1=O [esketamine, (S)-2-(2-chlorophenyl)-2-(methylamino)cyclohexanone]
treatment effect, change in MADRS, biomarker signature negative patients ([1]; TRD2003, Japanese patients): 2.83 points
treatment effect, change in MADRS, biomarker signature positive patients ([1]; TRD2003, Japanese patients, small n): 11.69 points
Signature advantage (difference between subtypes), 3MM ([1]; across the esketamine TRD trials): 5.8 point
Treatment effect over placebo in 3MM biomarker signature negative subjects (TE SigNeg) [1, 5]: 2 MADRS points and 2.0 MADRS points
Treatment effect over placebo in 3MM biomarker signature positive subjects (TE SigPos) [1, 5]: 7.8 MADRS points
3MM status at baseline as predictor of treatment effect ([1]; esketamine trials with suicidal ideation (SUI)): did not predict treatment effect
remission rate measured by SDS (subjects with TRD [2]; OP/MA phase week 4): 25.2%
remission rate measured by SDS (subjects with TRD [2]; OP/MA phase week 48): 51.1%
remission rate measured by SDS (subjects with TRD [2]; endpoint of the IND phase): 21.1%
PHQ-9 total score: mean change (SD) from Baseline (IND) to End Point (IND) (subjects with TRD [3]; induction phase): −8.9 (6.67)
PHQ-9 total score: mean change (SD) from Baseline (OP/MA) to End Point (OP/MA) (subjects with TRD [3]; optimization/maintenance phase): −0.2 (5.65)
MADRS total score: mean change (SD) from Baseline (IND) to End Point (IND) (subjects with TRD [4]; 4-week open-label induction phase, intranasal 28/56/84 mg twice weekly): −16.4 (8.76)
MADRS total score: mean change (SD) from Baseline (OP/MA) to End Point (OP/MA) (subjects with TRD [4]; 48-week optimization/maintenance phase): 0.3 (8.12)
remission rate (MADRS total score ≤12) (subjects with TRD [4]; End Point, IND phase): 47.2%
response rate (≥50% improvement from Baseline (IND) in MADRS total score) (subjects with TRD [4]; End Point, IND phase): 78.4%
remitters (MADRS total score ≤12) (subjects with TRD [4]; [6]): 58.2%
responders (≥50% improvement in MADRS total score) (subjects with TRD [4]; [6]): 76.5%
